Experimental data: PMC12621043, “Un-LOK-ing a New Approach for Conformational Selective Targeting of STK10 (LOK)” (ACS Medicinal Chemistry Letters, 2025)
Where “and” joins values, the source holds several entries; their conditions need not be identical. Equal values may be shown once. Read-outs that look alike come from different tables or passages of the source.

Columns and labels:
STK10 [1] = target: T1, STK10 (Homo sapiens, UniProt O94804); experiment: Surface plasmon resonance (SPR); format: binding; conditions: 1:1 Langmuir kinetic model, 25 °C
T1 construct: purchased in-house DSF kinase panel (SGC-style construct names; the trailing letter is the construct ID)
Description: each well using a multichannel pipette (Eppendorf). Plates were incubated at 37 °C for 1 hour.
For substrate addition, 5 μL of 8 μM AQT0505 peptide was added to each well using the Mantis […]
temperature for an additional hour.
Fluorescence of the SOX-peptide was measured after excitation at 360 nm and emission at 487 nm using a PHERAstar plate reader (BMG Labtech). IC50 values were calculated by nonlinear regression of log[inhibitor] versus normalized response using GraphPad Prism 8 (www.graphpad.com, RRID:SCR_002798).
SPR. Surface plasmon resonance (SPR) experiments were conducted using a Biacore T200 instrument equipped with a Series S Sensor Chip NTA (Cytiva) at 25 °C. His-STK10 was immobilized at a flow rate of 10 µL/min on flow channels (FC) 2 while FC1 served as a blank reference without protein. Nickel loading of the chip was achieved by injecting 500 µM NiCl₂.
To activate the chip surface for covalent coupling, 483 mM EDC and 10 mM NHS were mixed in a 1:1 (v/v) ratio and injected. […]
Compound 23 was measured in duplicates using Multi-Cycle Kinetics, with 10 concentrations ranging from 0.01 µM to 5 μM injected across FC1 and FC2 at 30 µL/min for 150 s. Interaction data was FC1-referenced, blank-subtracted, solvent-corrected, and analyzed using Biacore T200 Evaluation Software version 3.2.1. […]

SLK [2] = target: SLK (Homo sapiens, UniProt Q9H2G2); experiment: Surface plasmon resonance (SPR); format: binding; conditions: kinetic fit, Figure S3
RPS6KA5A = experiment: DSF Tm panel; format: binding; conditions: 10 μM compound
Description: The synthesized urea-based derivatives were evaluated in a panel of kinases by differential scanning fluorescence (DSF) to investigate their selectivity profile. A positive ΔT m in the DSF assay indicates stabilization of the protein upon ligand binding in comparison to its apo state, with higher thermal shifts generally correlating with stronger binding. For this purpose, we used our internal kinase selectivity panel (∼90 kinases) along with staurosporine as a positive control. […]
was performed as previously described.[1,2] Briefly, recombinant protein kinase domains at a concentration of 2 μM were mixed with 10 μM compound in a buffer containing 20 mM HEPES, […]
probe (1 µl per mL). Subsequently, temperature-dependent protein unfolding profiles were […]
The temperature was raised with a step rate of 3 °C per minute. […]
inflection point of the transition curve. […]
previously.[3] In brief, STK10, STK3, STK4 and SLK were obtained as plasmids cloned in […]
Plasmids were transfected into
KD concentration taken from TracerDB (tracerdb.org)[4] were pipetted into white 384-well

FECHHSB = target: T2, FECHHSB (Homo sapiens, UniProt P22830); experiment: DSF Tm panel; format: binding; conditions: 10 μM compound
T2 construct: purchased in-house DSF kinase panel (SGC-style construct names; the trailing letter is the construct ID)

STK10 [3] = target: T1, STK10; conditions: Figure 1, previous published dual STK10/SLK inhibitors, ref Serafim et al.; read-out: STK10 cellular IC50; cited from earlier work
SLK [4] = tested on: SLK; parameters: method as in Serafim et al.; conditions: Figure 1, previous published dual STK10/SLK inhibitors, ref Serafim et al.; read-out: SLK cellular IC50; cited from earlier work
STK10 [5] = target: T1, STK10; conditions: Figure 1, previous published dual STK10/SLK inhibitors, ref Serafim et al.; read-out: STK10 in vitro IC50; cited from earlier work

T1 sequence (O94804 18-317 limits assumed): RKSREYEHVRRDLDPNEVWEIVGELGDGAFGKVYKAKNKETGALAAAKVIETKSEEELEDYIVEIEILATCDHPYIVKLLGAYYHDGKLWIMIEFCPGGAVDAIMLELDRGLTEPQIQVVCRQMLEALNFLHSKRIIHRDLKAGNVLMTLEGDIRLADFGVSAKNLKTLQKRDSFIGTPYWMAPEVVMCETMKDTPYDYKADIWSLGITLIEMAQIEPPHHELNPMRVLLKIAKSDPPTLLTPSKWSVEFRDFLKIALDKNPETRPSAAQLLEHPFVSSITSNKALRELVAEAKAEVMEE
T2 sequence (P22830 55-423): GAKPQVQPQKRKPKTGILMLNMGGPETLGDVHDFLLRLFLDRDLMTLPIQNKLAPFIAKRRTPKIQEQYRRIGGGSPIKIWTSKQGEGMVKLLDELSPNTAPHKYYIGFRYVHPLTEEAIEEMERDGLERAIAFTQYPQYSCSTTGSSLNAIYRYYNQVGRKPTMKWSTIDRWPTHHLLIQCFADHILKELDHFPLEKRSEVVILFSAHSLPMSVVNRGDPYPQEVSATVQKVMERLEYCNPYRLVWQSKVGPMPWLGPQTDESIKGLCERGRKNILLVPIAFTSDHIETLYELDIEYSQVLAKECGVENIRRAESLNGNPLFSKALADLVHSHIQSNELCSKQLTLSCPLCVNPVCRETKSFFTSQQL

| Structure (SMILES) | ΔTm RPS6KA5A (RPS6KA5A) | other results |
| --- | --- | --- |
| Cc1cc(Cl)ccc1CNC(=O)Nc1ccc2cc1OCCOCCNc1ccn3ncc-2c3n1 [compound 23] |  | Kd (STK10 [1]): 365 ± 45 nM; Kd (SLK [2]): 985 ± 855 nM; Kd SLK (SPR) (SLK [2]): mainly nonspecific binding |
| Cc1cc(Br)ccc1CNC(=O)Nc1ccc2cc1OCCOCCNc1ccn3ncc-2c3n1 [compound 24] | 1,0 °C |  |
| Cc1ccc(F)cc1CNC(=O)Nc1ccc2cc1OCCOCCNc1ccn3ncc-2c3n1 [compound 26] | 0,7 °C |  |
| O=C(NCc1ccccc1C(F)(F)F)Nc1ccc2cc1OCCOCCNc1ccn3ncc-2c3n1 [compound 27] | 1,3 °C |  |
| O=C(NCc1ccc(C(F)(F)F)cc1)Nc1ccc2cc1OCCOCCNc1ccn3ncc-2c3n1 [compound 28] | 1,5 °C |  |
| COc1ccccc1CNC(=O)Nc1ccc2cc1OCCOCCNc1ccn3ncc-2c3n1 [compound 29] | 0,2 °C | ΔTm at 10 µM (FECHHSB): -3.1 °C |
| COc1cccc(CNC(=O)Nc2ccc3cc2OCCOCCNc2ccn4ncc-3c4n2)c1 [compound 30] | 0,3 °C | ΔTm at 10 µM (FECHHSB): -3.8 °C |
| COc1ccc(CNC(=O)Nc2ccc3cc2OCCOCCNc2ccn4ncc-3c4n2)cc1 [compound 31] |  | IC50 (STK10 [3]): > 1000 nM and 1400 nM; IC50 (SLK [4]): 700 nM; IC50 (STK10 [5]): 12 nM |
| COc1ccc(CNC(=O)Nc2ccc3cc2OCCOCCNc2ccn4ncc-3c4n2)cc1F [compound 32] | 1,1 °C |  |
| COc1cc(CNC(=O)Nc2ccc3cc2OCCOCCNc2ccn4ncc-3c4n2)ccc1F [compound 33] | 0,7 °C |  |
| C[C@H](NC(=O)Nc1ccc2cc1OCCOCCNc1ccn3ncc-2c3n1)c1ccccc1 [compound 34] | 0,6 °C |  |
